Bounds are passed on as bounds.

One data set addresses T1, aldehyde dehydrogenase (Rattus norvegicus, UniProt P11884).
T1 sequence (P11884 20-519): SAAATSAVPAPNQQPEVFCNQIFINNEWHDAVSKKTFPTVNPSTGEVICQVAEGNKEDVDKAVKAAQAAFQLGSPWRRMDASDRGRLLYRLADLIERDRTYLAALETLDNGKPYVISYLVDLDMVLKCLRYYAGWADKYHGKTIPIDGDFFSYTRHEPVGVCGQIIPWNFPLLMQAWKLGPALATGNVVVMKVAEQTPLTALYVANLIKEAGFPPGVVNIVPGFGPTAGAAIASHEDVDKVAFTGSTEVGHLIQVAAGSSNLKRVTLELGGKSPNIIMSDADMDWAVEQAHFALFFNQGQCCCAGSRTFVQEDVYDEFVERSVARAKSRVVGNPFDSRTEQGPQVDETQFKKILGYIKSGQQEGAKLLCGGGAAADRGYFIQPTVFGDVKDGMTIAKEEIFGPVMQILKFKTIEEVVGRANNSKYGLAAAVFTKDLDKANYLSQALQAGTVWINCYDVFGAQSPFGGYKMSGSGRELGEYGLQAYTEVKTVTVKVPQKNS
The note with it: cited from earlier work.

For data set [1], the system named is non-small cell lung cancer. Kind of data set: Phase II trial of disulfuram with Cisplatin/Vinorelbine in non-small cell lung cancer. Format: in vivo. The conditions noted are these: 120 mg daily (40 mg three times a day) for eighteen weeks, human patients. From the text:
A phase II, multicenter, randomized, double blind study was designed to assess the dose response of humans suffering from lung cancer to Disulfuram or a disulfuram-Cisplatin/Vinorelbine combination. Patients with histogically or cytologically documented advanced (i.e. stage Mb or stage IV), or recurrent non-small cell lung cancer, previously untreated with systemic anti-tumor therapy were selected for the study. The patients were randomly assigned to the standard first line hospital chemotherapy treatment (Cisplatin/Vinorelbine) with placebo or Cisplatin/Vinorelbine in combination with disulfuram. Treatment was provided in cycles of 21-day time periods until progression or for a maximum of 6 cycles.
The patients were further assessed for overall survival, time to progression and duration of response.
Standard administration regimens for cisplatin and Vinorelbine were followed.
Placebo capsules included the lactose carrier but were devoid of disulfuram. Each patient received the disulfuram or placebo from the treating physician.

For data set [2] the following is noted: cited from earlier work.
For data set [3] the following is noted: oral DSF, cited from earlier work.
A further data set concerns Lewis lung carcinoma. The conditions noted are these: oral administration to mice; cited from earlier work.
Another data set deals with C6 glioma tumor. The conditions noted are these: oral administration to mice; cited from earlier work.
The next data set has as its system angiogenesis. The conditions noted are these: oral administration, CD1 nude mice; cited from earlier work.
For data set [4], the system named is bovine capillary endothelial (BCE) cells. The note with it: cited from earlier work.
The target of data set [5] is Cu/Zn Suproxide dismutase (SOD-1) (Homo sapiens, UniProt P00441). The note with it: both in vivo and in vitro; cited from earlier work.
Data set [6] relates to advanced stage IV metastatic melanoma. The conditions noted are these: daily 250-500 mg disulfuram and 50 mg zinc gluconate; three months from onset of therapy; cited from earlier work.
The subject of the next data set is cancer. The conditions noted are these: cited from earlier work.
The test system of data set [7] is acetaldehyde dehydrogenase. The conditions noted are these: cited from earlier work.
In data set [8] the test system is human malignant cell lines. The conditions noted are these: combination of disulfuram and metal ions, in vitro; cited from earlier work.
[9] abbreviates: cultured BCE cells, prevented by copper and antioxidants.

Cu/Zn Suproxide dismutase (SOD-1), sequence (P00441 whole entry, species assumed): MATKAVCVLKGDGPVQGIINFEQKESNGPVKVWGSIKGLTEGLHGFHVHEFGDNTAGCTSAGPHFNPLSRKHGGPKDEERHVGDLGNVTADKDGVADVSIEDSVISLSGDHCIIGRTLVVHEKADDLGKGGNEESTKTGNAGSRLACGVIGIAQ

On to `CCN(CC)C(=O)SC` [Me-DTC, diethylthiomethylcarbamate], for which the “inhibition of aldehyde dehydrogenase” value at aldehyde dehydrogenase is “most powerful irreversible inhibitor”.

Regarding `CCN(CC)C(=S)SSC(=S)N(CC)CC` [disulfuram, bis(diethylthiocarbamoyl) disulfide], the “time to progression and survival of non-small cell lung cancer” value in data set [1] was “extending time to progression and survival”. In addition, the soluble in alcohol result in [2] (alcohol) is listed as “about 3.8 g in 100 ml”. The soluble in water entry in [2] (water) is listed as “about 20 mg in 100 ml”. The T1/2 in [3] (elimination kinetics) was 7.3 h. In addition, the “average time to reach maximum plasma concentration” value in data set [3] was 8 to 10 h. Moreover, the “reduction in the metastatic load of Lewis lung carcinoma” value with Lewis lung carcinoma is 10-19 fold. In addition, the “C6 glioma tumor development” value in the data set on C6 glioma tumor is given as “significant inhibition”. The angiogenesis result in the data set on angiogenesis is “inhibited angiogenesis”. In addition, the level of glutathione entry in data set [4] (BCE cells) is given as “reduced the level of glutathione”. In [4] (setting [9]), the DNA synthesis entry is given as “inhibition of DNA synthesis” and the apoptosis result is listed as “induction of apoptosis”. The “activity of Cu/Zn Suproxide dismutase (SOD-1)” value in data set [5] is “inhibits activity”. Moreover, the “reduction in tumor size” value in [6] was above 50%. Also, the “response rate, time to progression, or median survival” value in the data set with cancer (about 2000 mg/subject disulfuram with 100 mg/m2 cisplatin once every 3-4 weeks, versus cisplatin alone) was “no statistically-significant difference”. Moreover, the gastrointestinal and ototoxicities entry in the data set on cancer (about 2000 mg/subject disulfuram with 100 mg/m2 cisplatin) is listed as “enhanced”. Besides, in data set [7] (after alcohol intake under the influence of disulfuram), the “concentration of acetaldehyde in the blood versus same amount of alcohol alone” value is 5 to 10 times higher. Also, in [7] (single dose unit), the onset of effect was 1 to 2 h and the “time of peak effect” value is recorded as “about 12 hours”. For the same compound, the “time effect is sustained” value in data set [7] (single dose unit, depends on liver enzymes) is 12 to 72 h. Moreover, the “duration of effects of a single dose in some individuals” value in data set [7] (single dose, some individuals) is recorded as “up to 2 weeks”. Further, the “proliferation of human malignant cell lines” value in [8] is on record as “inhibited the proliferation”.

The values above are taken from US20100099757A1, “DISULFIRAM DOSES AND TREATMENT REGIMEN SUITABLE FOR TREATMENT OF ANGIOGENESIS-DEPENDENT DISORDERS” (priority 2006, published 2010).
